Measurements: patent US9833455B2, “Preparation and methods of use for ortho-aryl 5-membered heteroaryl-carboxamide containing multi-targeted kinase inhibitors” (Spacefill Enterprises LLC, priority 2011, dated 2017)

Tests used:
CSF1R [1] = target: T1, CSF1R (Homo sapiens, UniProt P07333); settings: 1 μM, duplicate, without preincubation; cited from earlier work
T1 construct: literature Ambit Biosciences

EGFR(L858R) = target: T2, EGFR(L858R) (Homo sapiens, UniProt P00533, L858R); settings: 1 μM, duplicate, without preincubation; cited from earlier work
T2 construct: literature Ambit Biosciences

KIT = KIT (Homo sapiens, UniProt P10721); settings: 1 μM, duplicate, without preincubation; cited from earlier work
PRKCE = target: T3, PRKCE (Homo sapiens, UniProt Q02156); settings: 1 μM, duplicate, without preincubation; cited from earlier work
T3 construct: literature Ambit Biosciences
T3 sequence (Q02156 1-737): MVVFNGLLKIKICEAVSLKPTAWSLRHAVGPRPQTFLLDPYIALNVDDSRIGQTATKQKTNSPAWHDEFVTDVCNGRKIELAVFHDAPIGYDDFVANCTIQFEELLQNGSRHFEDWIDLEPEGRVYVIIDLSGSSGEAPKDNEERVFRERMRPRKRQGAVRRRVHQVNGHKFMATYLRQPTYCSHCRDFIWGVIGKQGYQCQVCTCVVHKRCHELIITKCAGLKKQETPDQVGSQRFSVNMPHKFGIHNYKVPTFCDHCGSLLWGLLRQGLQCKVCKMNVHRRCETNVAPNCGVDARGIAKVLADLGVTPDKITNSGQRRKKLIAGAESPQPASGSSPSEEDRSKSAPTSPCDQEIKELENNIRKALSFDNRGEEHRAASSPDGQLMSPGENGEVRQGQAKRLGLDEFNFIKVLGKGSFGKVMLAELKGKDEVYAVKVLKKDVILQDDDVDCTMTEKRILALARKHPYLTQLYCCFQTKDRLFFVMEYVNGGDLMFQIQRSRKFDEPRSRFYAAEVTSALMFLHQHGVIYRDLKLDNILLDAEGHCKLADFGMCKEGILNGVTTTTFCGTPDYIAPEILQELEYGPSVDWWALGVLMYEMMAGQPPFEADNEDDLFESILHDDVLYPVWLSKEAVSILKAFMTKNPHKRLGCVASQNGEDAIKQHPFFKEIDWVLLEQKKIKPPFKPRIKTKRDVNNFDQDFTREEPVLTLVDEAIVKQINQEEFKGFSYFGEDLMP

VEGFR2 = target: T4, VEGFR2 (Homo sapiens, UniProt P35968); settings: 1 μM, duplicate, without preincubation; cited from earlier work
T4 construct: literature Ambit Biosciences

CSF1R [2] = target: T1, CSF1R; settings: cited from earlier work
EPHA2 = EPHA2 (Homo sapiens, UniProt P29317); design: literature Ambit Biosciences; settings: 1 μM, duplicate, without preincubation; cited from earlier work
EPH-A1 = EPH-A1 (Homo sapiens, UniProt P21709); test: Nanosyn kinase profiling, % inhibition; format: biochemical; settings: panel of 230 kinases
Description: (§1) “Inhibiting kinase activity” means to decrease the production of an phosphor-peptide by a particular kinase that can be separated by analytical techniques. For example, a comprehensive platform of kinase, protease, phosphatase and epigenetic assays that utilizes cutting-edge microfluidics and informatics tools to provide accurate and rapid results. Profiling data in this application were determined using these techniques at Nanosyn Inc. IC50 data were provided by Reaction Biology Inc using a P33 radiolabeled kinase assay.
(§2) More modest activity for Aurora-A, FLT-1/4, KDR, KIT, PDGFRs was accompanied by better activity for B-Raf mutant and wild-type forms, Modest inhibition of MEK-1, BTK, c-Met, RET, and RON was also observed. […] Moreover, the observed inhibition of MEK-1 with 1-12 and TYK2 with I-6 represents additional activities against kinases for which no type-II inhibitors have been reported to date. […] To further evaluate the scope of inhibition, I-6 was evaluated against a larger panel of 230 kinases, Table-22.

EPH-A3 = EPH-A3 (Homo sapiens, UniProt P29320); test: Nanosyn kinase profiling, % inhibition; format: biochemical; settings: panel of 230 kinases
Description: as §1, §2

EPH-A4 = EPH-A4 (Homo sapiens, UniProt P54764); test: Nanosyn kinase profiling, % inhibition; format: biochemical; settings: panel of 230 kinases
Description: as §1, §2

EPH-A5 = EPH-A5 (Homo sapiens, UniProt P54756); test: Nanosyn kinase profiling, % inhibition; format: biochemical; settings: panel of 230 kinases
Description: as §1, §2

EPH-B4 = EPH-B4 (Homo sapiens, UniProt P54760); test: Nanosyn kinase profiling, % inhibition; format: biochemical; settings: panel of 230 kinases
Description: as §1, §2

FGR = FGR (Homo sapiens, UniProt P09769); test: Nanosyn kinase profiling, % inhibition; format: biochemical; settings: panel of 230 kinases
Description: as §1, §2

LCK = LCK (Homo sapiens, UniProt P06239); test: Nanosyn kinase profiling, % inhibition; format: biochemical; settings: panel of 230 kinases
Description: as §1, §2

LOK = LOK (Homo sapiens, UniProt O94804); test: Nanosyn kinase profiling, % inhibition; format: biochemical; settings: panel of 230 kinases
Description: as §1, §2

MAP4K2 = MAP4K2 (Homo sapiens, UniProt Q12851); test: Nanosyn kinase profiling, % inhibition; format: biochemical; settings: panel of 230 kinases
Description: as §1, §2

MEK2 = MEK2 (Homo sapiens, UniProt P36507); test: Nanosyn kinase profiling, % inhibition; format: biochemical; settings: panel of 230 kinases
Description: as §1, §2

MUSK = MUSK (Homo sapiens, UniProt O15146); test: Nanosyn kinase profiling, % inhibition; format: biochemical; settings: panel of 230 kinases
Description: as §1, §2

PAK1 = PAK1 (Homo sapiens, UniProt Q13153); test: Nanosyn kinase profiling, % inhibition; format: biochemical; settings: panel of 230 kinases
Description: as §1, §2

PTK5 = PTK5 (Homo sapiens, UniProt P42685); test: Nanosyn kinase profiling, % inhibition; format: biochemical; settings: panel of 230 kinases
Description: as §1, §2

SIK = SIK (Homo sapiens, UniProt P57059); test: Nanosyn kinase profiling, % inhibition; format: biochemical; settings: panel of 230 kinases
Description: as §1, §2

SPHK1 = SPHK1 (Homo sapiens, UniProt Q9NYA1); test: Nanosyn kinase profiling, % inhibition; format: biochemical; settings: panel of 230 kinases
Description: as §1, §2

TRKC = TRKC (Homo sapiens, UniProt Q16288); test: Nanosyn kinase profiling, % inhibition; format: biochemical; settings: panel of 230 kinases
Description: as §1, §2

TYRO3 = TYRO3 (Homo sapiens, UniProt Q06418); test: Nanosyn kinase profiling, % inhibition; format: biochemical; settings: panel of 230 kinases
Description: as §1, §2

FGFR3 = target: T5, FGFR3 (Homo sapiens, UniProt P22607); settings: 1 μM, duplicate, without preincubation; cited from earlier work
T5 construct: literature Ambit Biosciences

IKK-alpha = target: T6, IKK-alpha (Homo sapiens, UniProt O15111); settings: 1 μM, duplicate, without preincubation; cited from earlier work
T6 construct: literature Ambit Biosciences

KIT(D816V) = target: T7, KIT(D816V) (Homo sapiens, UniProt P10721, D816V); settings: 1 μM, duplicate, without preincubation; cited from earlier work
T7 construct: literature Ambit Biosciences

PCTK1 = target: T8, PCTK1 (Homo sapiens, UniProt Q00536); settings: 1 μM, duplicate, without preincubation; cited from earlier work
T8 construct: literature Ambit Biosciences

T1 sequence (P07333 20-972): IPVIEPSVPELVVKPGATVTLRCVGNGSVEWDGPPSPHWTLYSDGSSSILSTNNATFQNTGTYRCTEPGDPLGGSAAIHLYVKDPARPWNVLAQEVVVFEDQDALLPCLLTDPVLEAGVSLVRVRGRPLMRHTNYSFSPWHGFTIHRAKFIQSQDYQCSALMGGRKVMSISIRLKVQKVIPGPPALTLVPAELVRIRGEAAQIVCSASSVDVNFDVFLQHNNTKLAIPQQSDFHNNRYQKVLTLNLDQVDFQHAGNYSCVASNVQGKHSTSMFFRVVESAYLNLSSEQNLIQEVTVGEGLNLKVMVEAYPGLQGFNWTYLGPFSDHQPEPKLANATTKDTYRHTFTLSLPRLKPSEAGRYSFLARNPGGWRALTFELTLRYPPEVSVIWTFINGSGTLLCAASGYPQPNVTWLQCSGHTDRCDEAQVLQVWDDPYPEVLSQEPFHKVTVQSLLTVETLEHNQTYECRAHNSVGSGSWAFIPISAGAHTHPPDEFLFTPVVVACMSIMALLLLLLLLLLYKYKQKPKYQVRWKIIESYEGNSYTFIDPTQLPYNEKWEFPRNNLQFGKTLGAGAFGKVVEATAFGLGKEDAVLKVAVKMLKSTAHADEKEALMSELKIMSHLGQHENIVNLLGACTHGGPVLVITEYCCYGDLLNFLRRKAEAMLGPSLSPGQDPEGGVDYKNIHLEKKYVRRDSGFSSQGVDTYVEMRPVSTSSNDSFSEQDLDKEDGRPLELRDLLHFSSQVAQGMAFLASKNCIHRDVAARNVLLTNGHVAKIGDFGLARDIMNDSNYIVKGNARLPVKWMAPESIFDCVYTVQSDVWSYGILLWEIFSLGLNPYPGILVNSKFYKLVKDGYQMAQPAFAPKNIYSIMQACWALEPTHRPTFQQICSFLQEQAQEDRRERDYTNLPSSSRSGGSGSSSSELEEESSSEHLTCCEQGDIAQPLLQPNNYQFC
KIT, sequence (P10721 26-976): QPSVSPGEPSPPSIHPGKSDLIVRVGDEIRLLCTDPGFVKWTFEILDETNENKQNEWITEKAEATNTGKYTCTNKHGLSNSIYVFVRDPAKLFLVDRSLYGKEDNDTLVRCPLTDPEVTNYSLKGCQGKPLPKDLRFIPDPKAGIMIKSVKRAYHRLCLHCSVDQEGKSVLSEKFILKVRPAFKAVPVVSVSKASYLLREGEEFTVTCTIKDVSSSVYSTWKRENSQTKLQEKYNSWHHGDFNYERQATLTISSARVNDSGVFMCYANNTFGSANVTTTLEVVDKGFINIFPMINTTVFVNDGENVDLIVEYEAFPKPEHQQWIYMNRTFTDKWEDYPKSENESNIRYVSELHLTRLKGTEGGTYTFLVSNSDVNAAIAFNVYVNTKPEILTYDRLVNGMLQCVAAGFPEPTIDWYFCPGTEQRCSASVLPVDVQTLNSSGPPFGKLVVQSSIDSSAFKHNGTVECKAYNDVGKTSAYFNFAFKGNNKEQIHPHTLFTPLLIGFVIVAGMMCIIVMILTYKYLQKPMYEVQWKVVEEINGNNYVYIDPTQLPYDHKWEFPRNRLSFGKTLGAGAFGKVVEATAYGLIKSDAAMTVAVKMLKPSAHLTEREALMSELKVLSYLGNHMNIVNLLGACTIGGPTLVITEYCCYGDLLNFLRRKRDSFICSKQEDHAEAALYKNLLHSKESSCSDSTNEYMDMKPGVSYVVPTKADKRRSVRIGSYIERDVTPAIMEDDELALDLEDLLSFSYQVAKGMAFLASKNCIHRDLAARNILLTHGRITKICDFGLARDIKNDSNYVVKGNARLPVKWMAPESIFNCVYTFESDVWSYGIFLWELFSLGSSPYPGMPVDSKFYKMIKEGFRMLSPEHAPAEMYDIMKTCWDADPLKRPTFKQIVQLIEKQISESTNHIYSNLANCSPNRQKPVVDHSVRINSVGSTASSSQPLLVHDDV
PAK1, sequence (Q13153 whole entry): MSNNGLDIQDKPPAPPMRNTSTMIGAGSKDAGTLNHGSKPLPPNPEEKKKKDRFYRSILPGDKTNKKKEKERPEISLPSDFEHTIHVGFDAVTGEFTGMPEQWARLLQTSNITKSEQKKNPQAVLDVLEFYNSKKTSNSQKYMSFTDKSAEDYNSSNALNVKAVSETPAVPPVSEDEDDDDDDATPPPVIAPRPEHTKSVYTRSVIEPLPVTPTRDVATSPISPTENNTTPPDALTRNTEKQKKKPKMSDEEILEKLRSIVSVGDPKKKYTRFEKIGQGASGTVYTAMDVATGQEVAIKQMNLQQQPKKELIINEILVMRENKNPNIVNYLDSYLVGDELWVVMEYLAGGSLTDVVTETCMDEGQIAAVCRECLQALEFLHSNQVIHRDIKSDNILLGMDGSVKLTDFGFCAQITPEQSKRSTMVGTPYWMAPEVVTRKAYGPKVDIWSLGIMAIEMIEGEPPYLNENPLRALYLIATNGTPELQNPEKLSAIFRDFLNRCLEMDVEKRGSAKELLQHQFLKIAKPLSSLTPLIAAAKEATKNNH
EPH-A3, sequence (P29320 21-983): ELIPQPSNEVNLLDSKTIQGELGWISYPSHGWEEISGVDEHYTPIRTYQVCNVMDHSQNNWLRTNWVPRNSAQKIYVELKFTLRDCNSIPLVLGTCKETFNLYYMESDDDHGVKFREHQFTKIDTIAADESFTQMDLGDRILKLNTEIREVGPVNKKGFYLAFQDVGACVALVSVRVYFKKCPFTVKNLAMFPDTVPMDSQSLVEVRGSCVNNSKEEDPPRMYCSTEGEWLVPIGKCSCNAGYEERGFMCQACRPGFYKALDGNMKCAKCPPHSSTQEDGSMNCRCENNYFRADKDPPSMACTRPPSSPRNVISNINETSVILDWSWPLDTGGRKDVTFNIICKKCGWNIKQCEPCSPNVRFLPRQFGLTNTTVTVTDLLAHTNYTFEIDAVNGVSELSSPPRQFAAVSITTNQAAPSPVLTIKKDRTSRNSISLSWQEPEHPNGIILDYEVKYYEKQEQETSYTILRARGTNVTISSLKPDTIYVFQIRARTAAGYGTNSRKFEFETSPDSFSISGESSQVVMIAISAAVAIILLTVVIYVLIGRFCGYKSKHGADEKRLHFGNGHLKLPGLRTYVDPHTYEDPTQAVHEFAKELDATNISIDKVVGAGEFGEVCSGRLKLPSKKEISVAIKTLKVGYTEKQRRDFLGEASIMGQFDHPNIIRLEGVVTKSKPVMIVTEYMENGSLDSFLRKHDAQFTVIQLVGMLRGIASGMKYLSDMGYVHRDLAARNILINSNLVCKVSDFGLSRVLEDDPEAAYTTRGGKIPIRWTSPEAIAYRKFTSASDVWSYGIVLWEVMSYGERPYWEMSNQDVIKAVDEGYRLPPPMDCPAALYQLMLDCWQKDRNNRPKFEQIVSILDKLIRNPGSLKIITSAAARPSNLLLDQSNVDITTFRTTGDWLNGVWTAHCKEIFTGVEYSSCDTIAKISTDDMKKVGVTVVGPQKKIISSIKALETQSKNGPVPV
TYRO3, sequence (Q06418 41-890): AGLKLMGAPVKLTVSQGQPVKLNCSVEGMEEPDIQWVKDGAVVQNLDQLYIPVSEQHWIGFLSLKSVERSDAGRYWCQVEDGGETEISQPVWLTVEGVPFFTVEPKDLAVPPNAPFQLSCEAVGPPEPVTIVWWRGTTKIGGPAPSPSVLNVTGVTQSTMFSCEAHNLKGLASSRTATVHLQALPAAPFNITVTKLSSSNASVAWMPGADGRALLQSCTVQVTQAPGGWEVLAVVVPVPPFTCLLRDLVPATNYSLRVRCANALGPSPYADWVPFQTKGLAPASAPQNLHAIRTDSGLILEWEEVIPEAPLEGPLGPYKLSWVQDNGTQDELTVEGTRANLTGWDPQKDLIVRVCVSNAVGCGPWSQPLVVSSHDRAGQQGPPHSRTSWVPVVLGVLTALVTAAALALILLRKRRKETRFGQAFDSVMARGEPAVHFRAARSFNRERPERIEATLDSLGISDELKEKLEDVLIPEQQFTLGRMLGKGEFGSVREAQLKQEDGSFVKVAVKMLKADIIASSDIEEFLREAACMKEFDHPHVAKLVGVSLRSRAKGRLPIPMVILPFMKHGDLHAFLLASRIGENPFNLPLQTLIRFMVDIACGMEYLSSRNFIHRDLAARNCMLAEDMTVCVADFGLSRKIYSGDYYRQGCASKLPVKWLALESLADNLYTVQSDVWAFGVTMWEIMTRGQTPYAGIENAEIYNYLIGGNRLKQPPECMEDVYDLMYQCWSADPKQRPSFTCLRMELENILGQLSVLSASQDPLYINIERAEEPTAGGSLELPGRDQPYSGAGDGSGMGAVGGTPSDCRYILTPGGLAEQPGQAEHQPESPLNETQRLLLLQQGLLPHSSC
PTK5, sequence (P42685 whole entry): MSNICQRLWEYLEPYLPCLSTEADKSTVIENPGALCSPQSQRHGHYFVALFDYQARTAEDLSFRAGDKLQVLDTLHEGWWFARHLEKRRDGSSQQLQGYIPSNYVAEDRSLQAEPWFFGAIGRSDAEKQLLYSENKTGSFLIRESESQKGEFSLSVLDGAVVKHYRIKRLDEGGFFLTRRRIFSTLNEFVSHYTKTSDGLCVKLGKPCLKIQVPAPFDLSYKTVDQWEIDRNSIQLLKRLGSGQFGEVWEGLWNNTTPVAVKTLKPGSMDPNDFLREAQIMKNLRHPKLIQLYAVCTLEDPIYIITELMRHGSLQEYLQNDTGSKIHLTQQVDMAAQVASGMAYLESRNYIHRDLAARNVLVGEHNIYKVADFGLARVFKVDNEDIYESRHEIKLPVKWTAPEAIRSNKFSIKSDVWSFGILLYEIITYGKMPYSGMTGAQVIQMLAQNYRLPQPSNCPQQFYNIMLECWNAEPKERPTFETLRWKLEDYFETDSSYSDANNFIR
T7 sequence (P10721 26-976 D816V): as the sequence (P10721 26-976) above, with D791V counted along it

Cc1ccc(NC(=O)c2[nH]c(C(F)(F)F)nc2-c2ccc(F)cc2)cc1Nc1ccc2ncn(C)c(=O)c2c1 [KIN-035]
inhibition of CSF1R (CSF1R [1]): XXX (XXX > 75% @ 1 μM)
inhibition of EGFR(L858R) (EGFR(L858R)): X (X > 25% @ 1 μM)
inhibition of KIT (KIT): XXXX (XXXX > 90% @ 1 μM)
inhibition of PRKCE (PRKCE): X (X > 25% @ 1 μM)
inhibition of VEGFR2 (VEGFR2): X (X > 25% @ 1 μM)
improved potency for CSF1R, KIN-032 vs KIN-035 (4-fluoro-substituent) (CSF1R [2]): 70 fold
inhibition of EPHA2 (EPHA2): XX (XX > 50% @ 1 μM)

CNC(=O)c1cc(Oc2ccc(NC(=O)c3nc(C(F)(F)F)[nH]c3-c3ccc(F)cc3)cc2)ccn1 [Inhibitor I-6, 4-(4-{[5-(4-Fluoro-phenyl)-2-trifluoromethyl-3H-imidazole-4-carbonyl]-amino}-phenoxy)-pyridine-2-carboxylic acid methylamide]
inhibition at 5 µM (EPH-A1): ≥ 50%
inhibition at 5 µM (EPH-A3): ≥ 50%
inhibition at 5 µM (EPH-A4): ≥ 50%
inhibition at 5 µM (EPH-A5): ≥ 50%
inhibition at 5 µM (EPH-B4): ≥ 50%
inhibition at 5 µM (FGR): ≥ 50%
inhibition at 5 µM (LCK): ≥ 50%
inhibition at 5 µM (LOK): ≥ 50%
inhibition at 5 µM (MAP4K2): ≥ 50%
inhibition at 5 µM (MEK2): ≥ 50%
inhibition at 5 µM (MUSK): ≥ 50%
inhibition at 5 µM (PAK1): ≥ 50%
inhibition at 5 µM (PTK5): ≥ 50%
inhibition at 5 µM (SIK): ≥ 50%
inhibition at 5 µM (SPHK1): ≥ 50%
inhibition at 5 µM (TRKC): ≥ 50%
inhibition at 5 µM (TYRO3): ≥ 50%

Cc1ccc(-c2nc(C(F)(F)F)[nH]c2C(=O)Nc2ccc(C)c(Nc3ccc4ncn(C)c(=O)c4c3)c2)cc1F [KIN-038]
inhibition of FGFR3 (FGFR3): X (X > 25% @ 1 μM)
inhibition of IKK-alpha (IKK-alpha): X (X > 25% @ 1 μM)
inhibition of KIT (KIT): XXXX (XXXX > 90% @ 1 μM)
inhibition of KIT(D816V) (KIT(D816V)): X (X > 25% @ 1 μM)
inhibition of PCTK1 (PCTK1): X (X > 25% @ 1 μM)
inhibition of PRKCE (PRKCE): X (X > 25% @ 1 μM)
